Laboratory results taken from paper PMC7271024, “N1-Benzofused Modification of Fluoroquinolones Reduces Activity Against Gram-Negative Bacteria” (ACS Omega, 2020).
Converted amounts (≈) assume the structure as drawn.

Assays:
[1] = tested on: panel of Gram-negative pathogens; assay: MIC panel, statements across strains; assay type: cell-based, K. pneumoniae, A. baumannii, P. aeruginosa, E. coli; details: versus ciprofloxacin
Procedure: (§1) The antibacterial activities of the synthesized fluoroquinolones were evaluated against a panel of Gram-negative pathogens including K. pneumoniae (NCTC 13368, M6), Acinetobacter baumannii (AYE, ATCC 17978), Pseudomonas aeruginosa (PAO1, NCTC 13437), and Escherichia coli (NCTC 12923, LEC001). The ability of molecules to permeate the Gram-negative outer membrane was investigated by adding membrane permeabilizer polymyxin B nonapeptide (PMBN) at sub-inhibitory concentrations (Table 2). Phenylalanine–arginine β-naphthylamide (PAβN) was used to investigate efflux of compounds by resistance–nodulation–division (RND)-family efflux pumps (Table 3).
(§2) Minimal inhibitory concentrations (MICs) were determined using the microdilution broth method. Briefly, compounds were added to the first two columns of a 96-well plate and diluted two-fold down the plate in tryptic soy broth. Overnight cultures of bacteria were then adjusted to a concentration of 1 × 10^6 CFU/mL and added to each well for a final concentration of 5 × 10^5 CFU/mL.

[2] = tested on: P. aeruginosa NCTC 13437; assay: MIC, microdilution broth method; assay type: cell-based, Pseudomonas aeruginosa; details: for MIC: Pseudomonas aeruginosa; for potentiation of MIC by PMBN: MIC –PMBN vs +PMBN
Procedure: as §1, §2

[3] = tested on: K. pneumoniae NCTC 13368; assay: MIC, microdilution broth method; assay type: cell-based, Klebsiella pneumoniae; details: Klebsiella pneumoniae, ciprofloxacin-resistant strain (R)
Procedure: as §1, §2

[4] = tested on: E. coli NCTC 12923; assay: MIC, microdilution broth method; assay type: cell-based, Escherichia coli; details: for MIC: Escherichia coli, ciprofloxacin-sensitive strain (S)
[5] = tested on: A. baumannii ATCC 17978; assay: MIC, microdilution broth method; assay type: cell-based, Acinetobacter baumannii; details: for MIC: Acinetobacter baumannii, ciprofloxacin-sensitive strain (S)
[6] = tested on: K. pneumoniae M6; assay: MIC, microdilution broth method; assay type: cell-based, Klebsiella pneumoniae; details: for MIC: Klebsiella pneumoniae, ciprofloxacin-sensitive strain (S)
[7] = tested on: A. baumannii AYE; assay: MIC, microdilution broth method; assay type: cell-based, Acinetobacter baumannii; details: for MIC: Acinetobacter baumannii
Procedure: as §1, §2

[8] = tested on: P. aeruginosa PAO1; assay: MIC, microdilution broth method; assay type: cell-based, Pseudomonas aeruginosa; details: for MIC: Pseudomonas aeruginosa, ciprofloxacin-sensitive strain (S); for potentiation of MIC by PMBN: MIC –PMBN vs +PMBN
[9] = tested on: E. coli LEC001; assay: MIC, microdilution broth method; assay type: cell-based, Escherichia coli; details: for MIC: Escherichia coli
Procedure: as §1, §2

[10] = Solubility as observed in the MIC and enzyme experiments; assay type: physicochemical; details: evidenced when undertaking the MIC experiments
Procedure: In vitro activity assays using purified S. aureus, E. coli and P. aeruginosa DNA gyrase, and S. aureus topoisomerase IV enzymes were performed in order to evaluate whether the gains in inhibitory activity predicted for the benzofused compounds were accurate. The benzothiophene-containing 6e was selected as a representative compound for the purposes of this experiment. […].
A general correlation between N1 substituent hydrophobicity and activity is observed; […].

[11] = NCTC13437, +PMBN (30 μg/mL), ciprofloxacin-resistant strain (R)
[12] = NCTC13437, –PMBN, ciprofloxacin-resistant strain (R)
[13] = +PMBN (30 μg/mL), ciprofloxacin-resistant strain (R)
[14] = –PMBN, ciprofloxacin-resistant strain (R)
[15] = LEC001, +PMBN (30 μg/mL), ciprofloxacin-resistant strain (R)
[16] = LEC001, –PMBN, ciprofloxacin-resistant strain (R)
[17] = PAβN, text names A. baumannii only

Row | Structure (SMILES) | antibacterial activity [1] | MIC [2, 11] | MIC [2, 12] | MIC ([3]; NCTC13368, +PMBN (30 μg/mL)) | MIC ([3]; NCTC13368, –PMBN) | MIC ([4]; NCTC12923, +PMBN (30 μg/mL)) | MIC ([4]; NCTC12923, –PMBN) | MIC ([5]; ATCC17978, +PMBN (30 μg/mL)) | MIC ([5]; ATCC17978, –PMBN) | MIC ([6]; M6, +PMBN (30 μg/mL)) | MIC ([6]; M6, –PMBN) | MIC [7, 13] | MIC [7, 14] | MIC ([8]; PAO1, +PMBN (30 μg/mL)) | MIC ([8]; PAO1, –PMBN) | MIC [9, 15] | MIC [9, 16] | potentiation of MIC by PMBN [2] | solubility profile [10] | potentiation of MIC by PMBN [8] | further results
1 | O=C(O)c1cn(Cc2ccccc2)c2cc(N3CCNCC3)c(F)cc2c1=O [Compound 6c] | limited activity | 32 mg/L (≈ 83.9 µM) | > 32 mg/L | 4 mg/L (≈ 10.5 µM) | 16 mg/L (≈ 41.9 µM) | 0.5 mg/L (≈ 1.31 µM) | 1 to 2 mg/L (≈ 2.62 to 5.24 µM) | 4 mg/L (≈ 10.5 µM) | 4 to 8 mg/L (≈ 10.5 to 21 µM) | 1 mg/L (≈ 2.62 µM) | 1 mg/L (≈ 2.62 µM) | > 32 mg/L | > 32 mg/L | 0.5 mg/L (≈ 1.31 µM) | 8 mg/L (≈ 21 µM) | > 32 mg/L | > 32 mg/L | – | – | – | –
2 | O=C(O)c1cn(Cc2cccc3ccoc23)c2cc(N3CCNCC3)c(F)cc2c1=O [Compound 6f] | almost complete loss of activity | 32 mg/L (≈ 75.9 µM) | > 128 mg/L | > 128 mg/L | > 128 mg/L | 32 mg/L (≈ 75.9 µM) | > 128 mg/L | > 128 mg/L | > 128 mg/L | > 128 mg/L | > 128 mg/L | > 128 mg/L | > 128 mg/L | 16 mg/L (≈ 38 µM) | > 128 mg/L | > 32 mg/L | > 32 mg/L | over 8 fold | poor solubility profiles | over 8 fold | –
3 | O=C(O)c1cn(C2CC2)c2cc(N3CCNCC3)c(F)cc2c1=O [Compound 6a, ciprofloxacin, reference compound] | – | 16 mg/L (≈ 48.3 µM) | > 32 mg/L | – | – | 0.03 to 0.06 mg/L (≈ 0.0905 to 0.181 µM) | ≤ 0.03 mg/L | 0.5 mg/L (≈ 1.51 µM) | 0.5 mg/L (≈ 1.51 µM) | – | – | > 32 mg/L | > 32 mg/L | – | – | 32 mg/L (≈ 96.6 µM) | 16 mg/L (≈ 48.3 µM) | – | – | 4–16 fold | MIC ([2]; NCTC13437, +PAβN (25 μg/mL), Table 3, strain R): 16 mg/L (≈ 48.3 µM); MIC ([2]; NCTC13437, –PAβN, Table 3, strain R): 32 mg/L (≈ 96.6 µM); effect of PAβN on MIC ([4]; PAβN, text names E. coli only): No effect; potentiation of MIC by PMBN ([5]; MIC –PMBN vs +PMBN): 1–2 fold; effect of PAβN on MIC [5, 17]: Neither ciprofloxacin nor compound 6e showed any difference in MIC; potentiation of MIC by PMBN ([6]; MIC –PMBN vs +PMBN): 1 fold; effect of PAβN on MIC ([6]; RND-family efflux inhibitor PAβN): not evident; MIC ([7]; +PAβN (25 μg/mL), Table 3, strain R): > 32 mg/L; MIC ([7]; –PAβN, Table 3, strain R): 32 mg/L (≈ 96.6 µM); effect of PAβN on MIC [7, 17]: Neither ciprofloxacin nor compound 6e showed any difference in MIC; MIC ([9]; LEC001, +PAβN (25 μg/mL), Table 3, strain R): 32 mg/L (≈ 96.6 µM); MIC ([9]; LEC001, –PAβN, Table 3, strain R): 16 mg/L (≈ 48.3 µM); effect of PAβN on MIC ([9]; PAβN, text names E. coli only): No effect
4 | O=C(O)c1cn(Cc2cccc3ccsc23)c2cc(N3CCNCC3)c(F)cc2c1=O [Compound 6g] | almost complete loss of activity | 16 mg/L (≈ 36.6 µM) | > 128 mg/L | > 128 mg/L | > 128 mg/L | 128 mg/L (≈ 293 µM) | > 128 mg/L | > 128 mg/L | > 128 mg/L | > 128 mg/L | > 128 mg/L | > 128 mg/L | > 128 mg/L | 32 mg/L (≈ 73.1 µM) | > 128 mg/L | > 32 mg/L | > 32 mg/L | over 8 fold | poor solubility profiles | over 8 fold | –
